Measured values published in patent publication US5177077A, “1,4-disubstituted piperazines” (Novo Nordisk A/S, priority 1990, dated 1993).
Read-outs that look alike come from different tables or passages of the source.

Tests used:
DA-uptake complex = molecular target: T1, DA-uptake complex (Rattus norvegicus, UniProt P23977); experiment: Test 1: inhibition of 3H-GBR 12935 binding to the DA-uptake complex in a striatal membrane preparation
T1 construct: in a striatal membrane preparation; from tissue; host or cells: striatal membranes
Experimental: The compounds were tested for their ability to inhibit the binding of 3H-GBR 12935 to the DA-uptake complex in a striatal membrane preparation following the method described by Andersen (Eur. J. Pharmacol. 166: 493-504, 1989).

motility of mice = experiment: Test 2: increase of motility of mice (photocell crossings); assay type: in vivo, Male NMRI mice; settings: for ED50: Mus musculus, po, lowest ED50 determined at a 20 min interval during the 360 min test period, drugs administered orally
Experimental: The compounds were also tested for their ability to increase the motility of mice following intravenous administration using the method outlined below.
Male NMRI mice are used (20±2 g). The animals are housed 20-30 per cage under constant temperature (20°±1°) and relative humidity (40-60%). The animals are brought into the experimental room in the afternoon, the day before they undergo testing.
The experimentally-naive mice are acclimatized by being placed in a plexiglass box (WLH: 20×20×38 cm), four per box, for a 120 min period, and then treated with the test compound whereafter they are replaced in the plexiglass box.
The plexiglass box is equipped with a frame of photocells (spaced equidistantly) which are situated so as to detect locomotor behaviour of the animals (1 cm above the floor). The photocell chamber is housed in an sound-insulated, dimly-lit, ventilated chest. As a measure of exploratory behaviour, the number of photocell crossings in a 360 min period is detected using a minicomputer. Testing is made between 7:00 and 17.00 h.
Drugs are administered orally simultaneously with start of testing; N=4/dose; 4-5 doses of test drug is given in a volume of 10 ml/kg.
Computer programmed log-probit methods are used to generate an ED50 in mg/kg using as minimum the control result, and as maximum values are used 7700 (this latter value has been experimentally found as the maximum motility counts after d-amphetamine in a 20 min period).
The test result is the lowest ED50 value determined at a 20 min interval during the 360 min test period.

T1 sequence (P23977 whole entry, one chain of several): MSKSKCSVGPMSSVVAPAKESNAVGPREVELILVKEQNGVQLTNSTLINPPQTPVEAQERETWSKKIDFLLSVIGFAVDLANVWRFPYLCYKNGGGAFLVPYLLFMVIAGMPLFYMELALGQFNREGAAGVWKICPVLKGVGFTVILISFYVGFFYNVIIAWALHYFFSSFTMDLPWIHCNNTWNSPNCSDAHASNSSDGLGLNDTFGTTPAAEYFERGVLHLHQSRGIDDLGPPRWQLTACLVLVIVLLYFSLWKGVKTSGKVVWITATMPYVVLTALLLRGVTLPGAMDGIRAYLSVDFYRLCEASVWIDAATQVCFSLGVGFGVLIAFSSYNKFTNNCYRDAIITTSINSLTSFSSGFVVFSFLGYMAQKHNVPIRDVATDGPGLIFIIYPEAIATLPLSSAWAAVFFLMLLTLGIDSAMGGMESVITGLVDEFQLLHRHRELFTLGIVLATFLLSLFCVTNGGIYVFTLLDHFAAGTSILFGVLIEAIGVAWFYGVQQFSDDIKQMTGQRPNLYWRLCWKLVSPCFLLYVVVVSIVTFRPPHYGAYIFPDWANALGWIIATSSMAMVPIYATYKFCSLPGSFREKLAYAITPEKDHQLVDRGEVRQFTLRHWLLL

SMILES: Cc1ccsc1C(OCCN1CCN(CCCc2ccccc2)CC1)c1ccc(F)cc1 (stereo not shown) [Example 1]
- IC50 (DA-uptake complex; striatal membrane preparation, method of Andersen 1989, read-out: Test 1 (inhibition of 3H-GBR 12935 binding)): 9 nM
- ED50 (motility of mice): 30 mg/kg

SMILES: Fc1ccc(C(OCCN2CCN(CC=Cc3ccco3)CC2)c2cccs2)cc1 (stereo not shown) [Example 2, 1-[2-((4-fluorophenyl)-(2-thienyl)methoxy)ethyl]-4-[3-(2-furyl)-2-propenyl]piperazine]
- IC50 (DA-uptake complex): 4.7 nM
- ED50 (motility of mice): 17.4 mg/kg

SMILES: Fc1ccc(C(OCCN2CCN(CCCc3ccccc3)CC2)c2ccsc2)cc1 (stereo not shown) [Example 3, 1-[2-((4-fluorophenyl)-(3-thienyl)methoxy)ethyl]-4-(3-phenylpropyl)piperazine]
- IC50 (DA-uptake complex): 3.7 nM
- ED50 (motility of mice): 32 mg/kg

SMILES: C[C@H](N)Cc1ccccc1 [d-amphetamine, reference compound]
- maximum motility counts (motility of mice; in a 20 min period, used as maximum for the log-probit ED50): 7700
